Data on 13 compounds can be found in US10780090B2, “Heteroaryl compounds useful as inhibitors of SUMO activating enzyme” (Millennium Pharmaceuticals, Inc., priority 2014, dated 2020).

This assay addresses recombinant human SAE enzyme (Homo sapiens (Human), UniProt Q9UBT2). As to the kind of experiment: SAE HTRF enzyme assay. In kind it is biochemical. The following applies: for Percent Inhibition: Concentration 0.111 μM; for IC50: class symbols A/B/C. Summed up: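 First, recombinant human SAE (0.11 nM) transfers Sumo-Flag onto Ubc9-GST using 0.5 μM ATP for 105 min at 24° C. Next, EDTA-containing detection buffer with labelled anti-Flag and anti-GST antibodies is added for 2 h. Finally, FRET is quantified and percent inhibition or IC50 derived.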
On the technique in general: In TR-FRET formats the signal depends on donor and acceptor labels being close together.

Some results are limits rather than exact numbers.

Chain of recombinant human SAE enzyme (Q9UBT2 whole entry): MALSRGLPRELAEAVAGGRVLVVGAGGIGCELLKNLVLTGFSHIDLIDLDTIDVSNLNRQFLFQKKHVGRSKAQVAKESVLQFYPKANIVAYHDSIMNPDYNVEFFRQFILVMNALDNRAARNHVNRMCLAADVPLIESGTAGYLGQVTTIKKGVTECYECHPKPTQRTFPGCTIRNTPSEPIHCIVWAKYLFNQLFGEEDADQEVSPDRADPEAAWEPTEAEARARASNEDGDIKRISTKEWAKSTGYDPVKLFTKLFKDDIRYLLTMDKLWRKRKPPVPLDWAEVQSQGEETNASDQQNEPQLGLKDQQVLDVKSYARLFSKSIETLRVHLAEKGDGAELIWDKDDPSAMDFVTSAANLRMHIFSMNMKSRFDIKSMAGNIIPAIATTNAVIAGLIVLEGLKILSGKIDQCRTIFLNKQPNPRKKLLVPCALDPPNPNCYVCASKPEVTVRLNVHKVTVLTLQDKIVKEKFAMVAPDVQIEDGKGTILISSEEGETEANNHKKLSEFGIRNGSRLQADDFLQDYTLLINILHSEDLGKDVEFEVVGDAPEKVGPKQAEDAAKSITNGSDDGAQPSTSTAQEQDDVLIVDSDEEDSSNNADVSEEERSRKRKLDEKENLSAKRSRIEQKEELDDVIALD
Chain of recombinant human SAE enzyme (Q9UBE0 whole entry partner): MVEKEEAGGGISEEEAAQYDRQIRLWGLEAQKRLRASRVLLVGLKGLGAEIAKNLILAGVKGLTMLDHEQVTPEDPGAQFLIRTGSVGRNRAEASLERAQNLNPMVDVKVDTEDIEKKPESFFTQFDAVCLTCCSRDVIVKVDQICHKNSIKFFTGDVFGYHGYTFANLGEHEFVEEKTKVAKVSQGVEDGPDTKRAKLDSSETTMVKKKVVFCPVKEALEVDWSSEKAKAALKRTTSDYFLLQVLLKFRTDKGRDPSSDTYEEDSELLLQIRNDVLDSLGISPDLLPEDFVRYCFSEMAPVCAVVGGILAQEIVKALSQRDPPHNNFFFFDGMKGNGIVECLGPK

In general, IC50 refers to the concentration that inhibits the measured activity by half. On to `CC(c1cccc(Cl)c1)c1csc(C(=O)c2cncnc2N[C@@H]2C[C@H](COS(N)(=O)=O)[C@@H](O)C2)c1` (single isomer, unassigned) [I-117b, [(1R,2S,4R)-4-{[5-({4-[(1S)-1-(3-chlorophenyl)ethyl]-2-thienyl}carbonyl)pyrimidin-4-yl]amino}-2-hydroxycyclopentyl]methyl sulfamate or [(1R,2S,4R)-4-{[5-({4-[(1R)-1-(3-chlorophenyl)ethyl]-2-thienyl}carbonyl)pyrimidin-4-yl]amino}-2-hydroxycyclopentyl]methyl sulfamate], for which the “Percent Inhibition” value was determined as 97 and the IC50 is less than 10 nM.

In the case of `Cc1sc(C(=O)c2cncnc2N[C@@H]2C[C@H](COS(N)(=O)=O)[C@@H](O)C2)cc1[C@H](C)c1cccc(Cl)c1` (single isomer, unassigned) [I-135a, [(1R,2S,4R)-4-{[5-({4-[(1R)-1-(3-chlorophenyl)ethyl]-5-methyl-2-thienyl}carbonyl)pyrimidin-4-yl]amino}-2-hydroxycyclopentyl]methyl sulfamate or [(1R,2S,4R)-4-{[5-({4-[(1S)-1-(3-chlorophenyl)ethyl]-5-methyl-2-thienyl}carbonyl)pyrimidin-4-yl]amino}-2-hydroxycyclopentyl]methyl sulfamate], the “Percent Inhibition” value stood at 82 and the IC50 lay in the range of 10 to 100 nM.

On to `Cc1sc(C(=O)c2cncnc2N[C@@H]2C[C@H](COS(N)(=O)=O)[C@@H](O)C2)cc1[C@H](C)c1cccc(Cl)c1` (single isomer, unassigned) [I-135b, [(1R,2S,4R)-4-{[5-({4-[(1R)-1-(3-chlorophenyl)ethyl]-5-methyl-2-thienyl}carbonyl)pyrimidin-4-yl]amino}-2-hydroxycyclopentyl]methyl sulfamate or [(1R,2S,4R)-4-{[5-({4-[(1S)-1-(3-chlorophenyl)ethyl]-5-methyl-2-thienyl}carbonyl)pyrimidin-4-yl]amino}-2-hydroxycyclopentyl]methyl sulfamate], for which the “Percent Inhibition” value turned out to be 95 and the IC50 was less than 10 nM.

Regarding `NS(=O)(=O)OC[C@H]1C[C@@H](Nc2ncncc2C(=O)c2cc(Cl)c([C@H](O)c3cccc(Cl)c3)s2)C[C@@H]1O` (single isomer, unassigned) [I-151a, [(1R,2S,4R)-4-{[5-({4-chloro-5-[(R)-(3-chlorophenyl)(hydroxy)methyl]-2-thienyl}carbonyl)pyrimidin-4-yl]amino}-2-hydroxycyclopentyl]methyl sulfamate or [(1R,2S,4R)-4-{[5-({4-chloro-5-[(S)-(3-chlorophenyl)(hydroxy)methyl]-2-thienyl}carbonyl)pyrimidin-4-yl]amino}-2-hydroxycyclopentyl]methyl sulfamate], the “Percent Inhibition” value turned out to be 80 and the IC50 fell in the range of 10 to 100 nM.

For the compound `NS(=O)(=O)OC[C@H]1C[C@@H](Nc2ncncc2C(=O)c2cc(Cl)c([C@H](O)c3cccc(Cl)c3)s2)C[C@@H]1O` (single isomer, unassigned) [I-151b, [(1R,2S,4R)-4-{[5-({4-chloro-5-[(R)-(3-chlorophenyl)(hydroxy)methyl]-2-thienyl}carbonyl)pyrimidin-4-yl]amino}-2-hydroxycyclopentyl]methyl sulfamate or [(1R,2S,4R)-4-{[5-({4-chloro-5-[(S)-(3-chlorophenyl)(hydroxy)methyl]-2-thienyl}carbonyl)pyrimidin-4-yl]amino}-2-hydroxycyclopentyl]methyl sulfamate], the “Percent Inhibition” value turned out to be 93 and the IC50 was less than 10 nM.

As for `CN(C)[C@H](c1cccc(Cl)c1)c1csc(C(=O)c2cncnc2N[C@@H]2C[C@H](COS(N)(=O)=O)[C@@H](O)C2)c1` (single isomer, unassigned) [I-153a, [(1R,2S,4R)-4-{[5-({4-[(R)-(3-chlorophenyl)(dimethylamino)methyl]-2-thienyl}carbonyl)pyrimidin-4-yl]amino}-2-hydroxycyclopentyl]methyl sulfamate or [(1R,2S,4R)-4-{[5-({4-[(S)-(3-chlorophenyl)(dimethylamino)methyl]-2-thienyl}carbonyl)pyrimidin-4-yl]amino}-2-hydroxycyclopentyl]methyl sulfamate], the “Percent Inhibition” value is listed as 30 and the IC50 lay in the range of 100 to 1000 nM.

For `CN(C)[C@H](c1cccc(Cl)c1)c1csc(C(=O)c2cncnc2N[C@@H]2C[C@H](COS(N)(=O)=O)[C@@H](O)C2)c1` (single isomer, unassigned) [I-153b, [(1R,2S,4R)-4-{[5-({4-[(R)-(3-chlorophenyl)(dimethylamino)methyl]-2-thienyl}carbonyl)pyrimidin-4-yl]amino}-2-hydroxycyclopentyl]methyl sulfamate or [(1R,2S,4R)-4-{[5-({4-[(S)-(3-chlorophenyl)(dimethylamino)methyl]-2-thienyl}carbonyl)pyrimidin-4-yl]amino}-2-hydroxycyclopentyl]methyl sulfamate], the “Percent Inhibition” value is 92 and the IC50 is less than 10 nM.

`Cc1sc(C(=O)c2cncnc2N[C@@H]2C[C@H](COS(N)(=O)=O)[C@@H](O)[C@H]2O)cc1[C@@H]1NCCc2ccc(Br)cc21` (single isomer, unassigned) [I-247a, [(1R,2R,3S,4R)-4-{[5-({4-[(1R)-7-bromo-1,2,3,4-tetrahydroisoquinolin-1-yl]-5-methyl-2-thienyl}carbonyl)pyrimidin-4-yl]amino}-2,3-dihydroxycyclopentyl]methyl sulfamate or [(1R,2R,3S,4R)-4-{[5-({4-[(1S)-7-bromo-1,2,3,4-tetrahydroisoquinolin-1-yl]-5-methyl-2-thienyl}carbonyl)pyrimidin-4-yl]amino}-2,3-dihydroxycyclopentyl]methyl sulfamate]: the “Percent Inhibition” value was determined as 100 and the IC50 is less than 10 nM.

`Cc1sc(C(=O)c2cncnc2N[C@@H]2C[C@H](COS(N)(=O)=O)[C@@H](O)[C@H]2O)cc1[C@@H]1NCCc2ccc(Br)cc21` (single isomer, unassigned) [I-247b, [(1R,2R,3S,4R)-4-{[5-({4-[(1R)-7-bromo-1,2,3,4-tetrahydroisoquinolin-1-yl]-5-methyl-2-thienyl}carbonyl)pyrimidin-4-yl]amino}-2,3-dihydroxycyclopentyl]methyl sulfamate or [(1R,2R,3S,4R)-4-{[5-({4-[(1S)-7-bromo-1,2,3,4-tetrahydroisoquinolin-1-yl]-5-methyl-2-thienyl}carbonyl)pyrimidin-4-yl]amino}-2,3-dihydroxycyclopentyl]methyl sulfamate]: the “Percent Inhibition” value was found to be 98 and the IC50 was less than 10 nM.

As for `Cc1sc(C(=O)c2cncnc2N[C@@H]2C[C@H](COS(N)(=O)=O)[C@@H](O)C2)cc1[C@H]1NCCc2ccc(Br)cc21` (single isomer, unassigned) [I-248a, [(1R,2S,4R)-4-{[5-({4-[(1S)-7-bromo-1,2,3,4-tetrahydroisoquinolin-1-yl]-5-methyl-2-thienyl}carbonyl)pyrimidin-4-yl]amino}-2-hydroxycyclopentyl]methyl sulfamate or [(1R,2S,4R)-4-{([5-({4-[(1R)-7-bromo-1,2,3,4-tetrahydroisoquinolin-1-yl]-5-methyl-2-thienyl}carbonyl)pyrimidin-4-yl]amino}-2-hydroxycyclopentyl]methyl sulfamate], the “Percent Inhibition” value is given as 99 and the IC50 was less than 10 nM.

As for `Cc1sc(C(=O)c2cncnc2N[C@@H]2C[C@H](COS(N)(=O)=O)[C@@H](O)C2)cc1[C@H]1NCCc2ccc(Br)cc21` (single isomer, unassigned) [I-248b, [(1R,2S,4R)-4-{[5-({4-[(1S)-7-bromo-1,2,3,4-tetrahydroisoquinolin-1-yl]-5-methyl-2-thienyl}carbonyl)pyrimidin-4-yl]amino}-2-hydroxycyclopentyl]methyl sulfamate or [(1R,2S,4R)-4-{[5-({4-[(1R)-7-bromo-1,2,3,4-tetrahydroisoquinolin-1-yl]-5-methyl-2-thienyl}carbonyl)pyrimidin-4-yl]amino}-2-hydroxycyclopentyl]methyl sulfamate], the “Percent Inhibition” value is reported as 95 and the IC50 is less than 10 nM.

As to `NS(=O)(=O)OC[C@H]1C[C@@H](Nc2ncncc2C(=O)c2cc([C@@H]3NCCc4ccc(Cl)cc43)c(Cl)s2)[C@H](O)[C@@H]1O` (single isomer, unassigned) [I-249a, [(1R,2R,3S,4R)-4-{[5-({5-chloro-4-[(1R)-7-chloro-1,2,3,4-tetrahydroisoquinolin-1-yl]-2-thienyl}carbonyl)pyrimidin-4-yl]amino}-2,3-dihydroxycyclopentyl]methyl sulfamate or [(1R,2R,3S,4R)-4-{[5-({5-chloro-4-[(1S)-7-chloro-1,2,3,4-tetrahydroisoquinolin-1-yl]-2-thienyl}carbonyl)pyrimidin-4-yl]amino}-2,3-dihydroxycyclopentyl]methyl sulfamate], the “Percent Inhibition” value is recorded as 100 and the IC50 is less than 10 nM.

Consider `NS(=O)(=O)OC[C@H]1C[C@@H](Nc2ncncc2C(=O)c2cc([C@@H]3NCCc4ccc(Cl)cc43)c(Cl)s2)[C@H](O)[C@@H]1O` (single isomer, unassigned) [I-249b, [(1R,2R,3S,4R)-4-{[5-({5-chloro-4-[(1R)-7-chloro-1,2,3,4-tetrahydroisoquinolin-1-yl]-2-thienyl}carbonyl)pyrimidin-4-yl]amino}-2,3-dihydroxycyclopentyl]methyl sulfamate or [(1R,2R,3S,4R)-4-{[5-({5-chloro-4-[(1S)-7-chloro-1,2,3,4-tetrahydroisoquinolin-1-yl]-2-thienyl}carbonyl)pyrimidin-4-yl]amino}-2,3-dihydroxycyclopentyl]methyl sulfamate], for which the “Percent Inhibition” value came out at 92 and the half-inhibitory concentration (IC50) was less than 10 nM.
